Measurements published in US8685992B2, “Histone deacetylase inhibitors based simultaneously on trisubstituted 1H-pyrroles and aromatic and heteroaromatic spacers” (Universidad del País Vasco, priority 2009, dated 2014).

What was measured:
[1] = target: Human HDAC6 (Homo sapiens (Human), UniProt Q9UBN7); assay: HDAC6 fluorogenic peptide deacetylation assay; assay type: biochemical; settings: human HDAC6, 50 μM substrate, 30° C., 2 h; read-out: IC50 (nM) of enzyme activity HDAC6
[2] = target: Human HDAC1 (Homo sapiens (Human), UniProt Q13547); assay: HDAC1 fluorogenic peptide deacetylation assay; assay type: biochemical; settings: human HDAC1, 50 μM substrate, 30° C., 2 h; read-out: IC50 (nM) of enzyme activity HDAC1
Sequence of Human HDAC1 (Q13547 whole entry): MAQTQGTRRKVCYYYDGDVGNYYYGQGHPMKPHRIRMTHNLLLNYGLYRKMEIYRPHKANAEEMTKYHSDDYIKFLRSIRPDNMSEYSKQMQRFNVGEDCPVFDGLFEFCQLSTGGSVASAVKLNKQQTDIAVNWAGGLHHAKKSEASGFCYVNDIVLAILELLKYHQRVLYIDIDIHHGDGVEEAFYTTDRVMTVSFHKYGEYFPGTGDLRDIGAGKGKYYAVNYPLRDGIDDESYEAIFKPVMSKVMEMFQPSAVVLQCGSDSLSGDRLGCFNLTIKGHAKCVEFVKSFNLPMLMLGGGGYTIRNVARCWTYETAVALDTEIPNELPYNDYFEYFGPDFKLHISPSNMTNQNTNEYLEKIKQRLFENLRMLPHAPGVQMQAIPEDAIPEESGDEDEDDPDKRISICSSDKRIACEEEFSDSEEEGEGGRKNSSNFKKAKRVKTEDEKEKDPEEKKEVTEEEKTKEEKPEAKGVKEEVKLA

[3] = target: Human HDAC3/NcoR2 (Homo sapiens (Human), UniProt O15379); assay: HDAC3 fluorogenic peptide deacetylation assay; assay type: biochemical; settings: human HDAC3/NcoR2, 50 μM substrate, 30° C., 2 h; read-out: IC50 (nM) of enzyme activity HDAC3
Sequence of Human HDAC3/NcoR2 (O15379 whole entry): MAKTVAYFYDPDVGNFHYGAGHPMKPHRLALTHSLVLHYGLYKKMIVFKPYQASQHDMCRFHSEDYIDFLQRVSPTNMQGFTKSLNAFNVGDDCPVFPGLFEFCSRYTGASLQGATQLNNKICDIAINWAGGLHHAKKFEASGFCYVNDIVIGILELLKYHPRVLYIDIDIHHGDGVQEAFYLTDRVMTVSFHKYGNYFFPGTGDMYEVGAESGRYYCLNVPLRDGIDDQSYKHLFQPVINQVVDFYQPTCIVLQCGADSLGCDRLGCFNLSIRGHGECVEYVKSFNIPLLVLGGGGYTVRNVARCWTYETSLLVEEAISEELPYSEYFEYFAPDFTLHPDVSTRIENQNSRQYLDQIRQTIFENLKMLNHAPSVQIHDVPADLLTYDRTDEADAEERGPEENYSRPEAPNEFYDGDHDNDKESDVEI
Sequence of Human HDAC3/NcoR2 (Q9Y618 395-489 partner): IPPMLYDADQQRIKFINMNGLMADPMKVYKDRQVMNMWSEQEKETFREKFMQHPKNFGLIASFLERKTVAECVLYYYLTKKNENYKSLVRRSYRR

[4] = target: Human HDAC2 (Homo sapiens (Human), UniProt Q92769); assay: HDAC2 fluorogenic peptide deacetylation assay; assay type: biochemical; settings: human HDAC2, 50 μM substrate, 30° C., 2 h; read-out: IC50 (nM) of enzyme activity HDAC2
Sequence of Human HDAC2 (Q92769 whole entry): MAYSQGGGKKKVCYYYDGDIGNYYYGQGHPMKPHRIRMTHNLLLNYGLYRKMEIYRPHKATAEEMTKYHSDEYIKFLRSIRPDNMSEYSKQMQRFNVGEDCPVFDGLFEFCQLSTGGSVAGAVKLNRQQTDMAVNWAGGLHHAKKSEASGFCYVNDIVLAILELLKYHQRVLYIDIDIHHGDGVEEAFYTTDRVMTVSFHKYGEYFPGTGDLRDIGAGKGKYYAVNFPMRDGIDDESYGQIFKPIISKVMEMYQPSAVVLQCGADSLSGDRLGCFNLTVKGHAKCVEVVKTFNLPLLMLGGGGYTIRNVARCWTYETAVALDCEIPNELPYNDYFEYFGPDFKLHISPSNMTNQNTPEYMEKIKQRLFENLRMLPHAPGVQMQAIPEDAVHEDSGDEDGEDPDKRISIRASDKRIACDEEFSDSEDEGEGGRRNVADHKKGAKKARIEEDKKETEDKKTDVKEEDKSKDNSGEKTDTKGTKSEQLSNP

[5] = target: Human HDAC8 (Homo sapiens (Human), UniProt Q9BY41); assay: HDAC8 fluorogenic peptide deacetylation assay; assay type: biochemical; settings: human HDAC8, 50 μM substrate, 30° C., 2 h; read-out: IC50 (nM) of enzyme activity HDAC8
Sequence of Human HDAC8 (Q9BY41 whole entry): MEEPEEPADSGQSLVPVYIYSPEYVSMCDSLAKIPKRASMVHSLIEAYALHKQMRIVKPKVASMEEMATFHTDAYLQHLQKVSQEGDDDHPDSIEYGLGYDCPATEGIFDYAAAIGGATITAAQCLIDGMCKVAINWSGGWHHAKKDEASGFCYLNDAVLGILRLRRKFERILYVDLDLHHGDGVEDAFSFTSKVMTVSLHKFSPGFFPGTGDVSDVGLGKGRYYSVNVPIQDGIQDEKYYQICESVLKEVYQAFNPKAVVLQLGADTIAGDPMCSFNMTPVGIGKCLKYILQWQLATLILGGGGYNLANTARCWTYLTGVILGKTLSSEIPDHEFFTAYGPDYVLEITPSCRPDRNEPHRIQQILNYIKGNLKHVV

[6] = system: Nuclear Extract from HeLa Cells; assay: HeLa Nuclear Extract HDAC assay; assay type: biochemical, human; settings: 50 μM substrate, 30° C., 2 h, read-out: IC50 (nM) of enzyme activity HeLa
[7] = target: histone deacetylase from rat liver; assay: Rat liver HDAC assay; assay type: biochemical; settings: Boc-Lys(Ac)-AMC substrate, 30° C., 2 h, read-out: IC50 (nM) of enzyme activity Rat liver

Sequence of Human HDAC6 (Q9UBN7 whole entry): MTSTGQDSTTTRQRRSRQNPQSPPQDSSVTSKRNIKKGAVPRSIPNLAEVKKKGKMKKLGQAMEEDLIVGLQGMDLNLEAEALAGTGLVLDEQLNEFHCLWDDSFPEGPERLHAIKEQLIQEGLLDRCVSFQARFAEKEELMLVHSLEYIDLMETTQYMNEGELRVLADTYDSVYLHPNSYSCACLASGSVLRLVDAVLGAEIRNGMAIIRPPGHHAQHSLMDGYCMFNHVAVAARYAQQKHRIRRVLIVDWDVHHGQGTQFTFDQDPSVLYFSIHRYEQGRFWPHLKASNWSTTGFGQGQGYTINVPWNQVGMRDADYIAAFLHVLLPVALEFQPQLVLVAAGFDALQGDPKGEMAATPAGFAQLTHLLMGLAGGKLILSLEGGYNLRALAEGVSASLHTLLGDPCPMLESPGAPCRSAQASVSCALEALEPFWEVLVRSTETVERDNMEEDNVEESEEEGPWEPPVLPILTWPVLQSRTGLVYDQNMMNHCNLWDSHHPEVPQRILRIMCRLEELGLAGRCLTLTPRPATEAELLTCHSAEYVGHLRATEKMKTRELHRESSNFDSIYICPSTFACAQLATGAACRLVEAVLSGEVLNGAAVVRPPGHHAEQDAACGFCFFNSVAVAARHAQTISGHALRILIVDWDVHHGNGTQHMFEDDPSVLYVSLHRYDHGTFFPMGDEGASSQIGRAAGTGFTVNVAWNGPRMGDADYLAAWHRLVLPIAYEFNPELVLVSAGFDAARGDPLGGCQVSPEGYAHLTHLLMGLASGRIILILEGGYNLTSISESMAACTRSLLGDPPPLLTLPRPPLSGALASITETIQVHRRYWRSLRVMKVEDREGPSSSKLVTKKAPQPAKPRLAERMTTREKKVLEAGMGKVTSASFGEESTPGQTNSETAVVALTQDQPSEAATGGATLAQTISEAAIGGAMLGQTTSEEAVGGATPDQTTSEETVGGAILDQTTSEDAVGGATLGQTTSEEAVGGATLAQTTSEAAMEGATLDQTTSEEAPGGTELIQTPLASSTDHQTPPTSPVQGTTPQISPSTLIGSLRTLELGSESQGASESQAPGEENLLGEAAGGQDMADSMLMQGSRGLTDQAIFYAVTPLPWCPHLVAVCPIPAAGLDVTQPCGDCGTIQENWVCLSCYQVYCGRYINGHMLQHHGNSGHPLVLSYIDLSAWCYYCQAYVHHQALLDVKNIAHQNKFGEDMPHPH

Compound | IC50 [1] | IC50 [2] | IC50 [3] | IC50 [4] | IC50 [5] | IC50 [6] | IC50 [7] | melting point
O=C(NO)c1ccc(CNC(=O)c2[nH]c(-c3cccs3)cc2-c2ccc(F)cc2)cc1 [Example 31, 3-(4-fluorophenyl)-N-{4-[(hydroxyamino)carbonyl]benzyl}-5-(2-thienyl)-1H-pyrrole-2-carboxamide] |  |  |  |  |  | 58 nM | 49 nM | 
Nc1ccccc1NC(=O)c1ccc(CNC(=O)c2[nH]c(-c3ccc(O)cc3)cc2-c2ccsc2)cc1 [Example 33, N-(4-{[(2-aminophenyl)amino)carbonyl]benzyl}-5-(4-hydroxyphenyl)-3-(3-thienyl)-1H-pyrrole-2-carboxamide] | > 5000 nM | 103 nM | 732 nM | 364 nM | > 5000 nM | 3270 nM |  | 
O=C(NO)c1ccc(CNC(=O)c2[nH]c(-c3ccccc3)cc2-c2ccc(F)cc2)cc1 [Example 29, 3-(4-fluorophenyl)-N-{4-[(hydroxyamino)carbonyl]benzyl}-5-phenyl-1H-pyrrole-2-carboxamide] |  |  |  |  |  | 73 nM | 71 nM | 
COc1ccc(-c2cc(-c3ccccc3)[nH]c2C(=O)NCc2ccc(C(=O)Nc3ncccn3)cc2)cc1 [Example 26, 3-(4-methoxyphenyl)-5-phenyl-N-{4-[(pyrimidin-2-ylamino)carbonyl]benzyl}-1H-pyrrole-2-carboxamide] | > 5000 nM | > 5000 nM | > 5000 nM | > 5000 nM | > 5000 nM | > 5000 nM |  | 190 to 191 °C
COc1ccc(-c2cc(-c3ccccc3)[nH]c2C(=O)Nc2ccc(C(=O)NO)cc2)cc1 [Example 19, N-{4-[(hydroxyamino)carbonyl]phenyl}-3-(4-methoxyphenyl)-5-phenyl-1H-pyrrole-2-carboxamide] |  |  |  |  |  |  | 101 nM | 234 to 235 °C
O=C(NO)c1ccc(CNC(=O)c2[nH]c(-c3ccc(F)cc3)cc2-c2ccc(F)cc2)cc1 [Example 30, 3,5-bis-(4-fluorophenyl)-N-{4-[(hydroxyamino)carbonyl]benzyl}-1H-pyrrole-2-carboxamide] |  |  |  |  |  | 90 nM | 82 nM | 
O=C(NO)c1ccc(CNC(=O)c2[nH]c(-c3cccs3)cc2-c2ccc(F)cc2)nc1 [Example 11, 6-[({[3-(4-fluorophenyl)-5-(2-thienyl)-1H-pyrrol-2-yl]carbonyl}amino)methyl]-N-hydroxynicotinamide] |  | 744 nM | 754 nM | 2530 nM | 181 nM | 68.3 nM |  | 151 to 152 °C
O=C(NO)c1ccc(CNC(=O)c2[nH]c(-c3cccs3)cc2-c2ccc(O)cc2)cc1 [Example 13, N-{4-[(hydroxyamino)carbonyl]benzyl}-3-(4-hydroxyphenyl)-5-(2-thienyl)-1H-pyrrole-2-carboxamide] | 6.6 nM | 865 nM | 614 nM | 1910 nM | 559 nM | 42 nM |  | 171 to 172 °C
O=C(NO)c1ccc(CNC(=O)c2[nH]c(-c3cccs3)cc2-c2ccc(F)cc2)cn1 [Example 32, 3-(4-fluorophenyl)-N-{2-[(hydroxyamino)carbonyl]-5-pyridyl-methyl}-5-(2-thienyl)-1H-pyrrole-2-carboxamide] |  |  |  |  |  | 390 nM |  | 
Nc1ccccc1NC(=O)c1ccc(CNC(=O)c2[nH]c(-c3ccoc3)cc2-c2ccc(O)cc2)cc1 [Example 34, N-(4-{[(2-aminophenyl)amino)carbonyl]benzyl}-5-(3-furyl)-3-(4-hydroxyphenyl)-1H-pyrrole-2-carboxamide] | 1260 nM | 86 nM | 770 nM | 349 nM | > 5000 nM | 1540 nM |  | 
COc1ccc(-c2cc(-c3ccccc3)[nH]c2C(=O)NCc2ccc(C(=O)NCCS)cc2)cc1 [Example 23, 3-(4-methoxyphenyl)-5-phenyl-N-(4-{[(2-sulfanylethyl)amino]carbonyl}benzyl)-1H-pyrrole-2-carboxamide] |  |  |  |  |  |  | > 10000 nM | 
COc1ccc(-c2cc(-c3ccccc3)[nH]c2C(=O)Nc2ccc(C(=O)NO)o2)cc1 [Example 16, N-{5-[(hydroxyamino)carbonyl]-2-furyl}-3-(4-methoxyphenyl)-5-phenyl-1H-pyrrole-2-carboxamide] |  |  |  |  |  |  | > 10000 nM | 160 to 162 °C
O=C(NO)c1ccc(CNC(=O)c2[nH]c(-c3ccccc3)cc2-c2ccc(F)cc2)o1 [Example 17, 3-(4-fluorophenyl)-N-({5-[(hydroxyamino)carbonyl]-2-furyl}methyl)-5-phenyl-1H-pyrrole-2-carboxamide] |  |  |  |  |  |  | 9790 nM | 152 to 153 °C
COc1ccc(-c2cc(-c3ccccc3)[nH]c2C(=O)Nc2cccc(CC(=O)NO)c2)cc1 [Example 18, N-{3-[2-(hydroxyamino)-2-oxoethyl]phenyl}-3-(4-methoxyphenyl)-5-phenyl-1H-pyrrole-2-carboxamide] |  |  |  |  |  |  | > 10000 nM | 205 to 206 °C

Other lines, results leading:

IC50 [1] | IC50 [2] | IC50 [3] | IC50 [4] | IC50 [5] | IC50 [6] | IC50 [7] | melting point | Compound
34.9 nM | 508 nM | 613 nM | 1690 nM | 146 nM | 43 nM |  |  | COc1ccc(-c2cc(-c3ccccc3)[nH]c2C(=O)NCCCCCC(=O)NO)cc1 [Kendine 91, N-[6-(hydroxyamino)-6-oxohexyl]-3-(4-methoxyphenyl)-5-phenyl-1H-pyrrole-2-carboxamide, reference compound]
> 5000 nM | 222 nM | 2070 nM | 752 nM | > 5000 nM | 4080 nM |  |  | Nc1ccccc1NC(=O)c1ccc(CNC(=O)c2[nH]c(-c3ccsc3)cc2-c2ccc(O)cc2)cc1 [Example 36, N-(4-{[(2-aminophenyl)amino)carbonyl]benzyl}-3-(4-hydroxyphenyl)-5-(3-thienyl)-1H-pyrrole-2-carboxamide]
> 5000 nM | 108 nM | 806 nM | 433 nM | > 5000 nM | 4280 nM |  |  | Nc1ccccc1NC(=O)c1ccc(CNC(=O)c2[nH]c(-c3ccc(O)cc3)cc2-c2ccccc2)cc1 [Example 35, N-(4-{[(2-Aminophenyl)amino)carbonyl]benzyl}-5-(4-hydroxyphenyl)-3-phenyl-1H-pyrrole-2-carboxamide]
 |  |  |  |  |  | 170 nM |  | O=C(NO)c1ccc(CNC(=O)c2[nH]c(-c3ccccc3)cc2-c2ccc(C(F)(F)F)cc2)cc1 [Example 39, N-{4-[(hydroxyamino)carbonyl]benzyl}-5-phenyl-3-(4-trifluoromethylphenyl)-1H-pyrrole-2-carboxamide]
 |  |  |  |  |  | 108 nM |  | Cc1ccc(-c2cc(-c3ccc(F)cc3)c(C(=O)NCc3ccc(C(=O)NO)cc3)[nH]2)cc1 [Example 47, 3-(4-fluorophenyl)-N-{4-[(hydroxyamino)carbonyl]benzyl}-5-(4-methylphenyl)-1H-pyrrole-2-carboxamide]
 |  |  |  |  |  | 70 nM |  | O=C(NO)c1ccc(CNC(=O)c2[nH]c(-c3cccnc3)cc2-c2ccc(F)cc2)cc1 [Example 46, 3-(4-fluorophenyl)-N-{4-[(hydroxyamino)carbonyl]benzyl}-5-(3-pyridinyl)-1H-pyrrole-2-carboxamide]
 |  |  |  |  |  | 115 nM |  | O=C(NO)c1ccc(CNC(=O)c2[nH]c(-c3ccccc3)cc2-c2cccc(Br)c2)cc1 [Example 45, 3-(3-bromophenyl)-N-{4-[(hydroxyamino)carbonyl]benzyl}-5-phenyl-1H-pyrrole-2-carboxamide]
 |  |  |  |  |  | 99 nM |  | O=C(NO)c1ccc(CNC(=O)c2[nH]c(-c3ccccc3)cc2-c2ccc(Br)cc2)cc1 [Example 40, 3-(4-bromophenyl)-N-{4-[(hydroxyamino)carbonyl]benzyl}-5-phenyl-1H-pyrrole-2-carboxamide]
 |  |  |  |  |  | 153 nM |  | O=C(NO)c1ccc(CNC(=O)c2[nH]c(-c3ccccc3)cc2-c2ccc(Cl)c(Cl)c2)cc1 [Example 44, 3-(3,4-dichlorophenyl)-N-{4-[(hydroxyamino)carbonyl]benzyl}-5-phenyl-1H-pyrrole-2-carboxamide]
 |  |  |  |  |  | 119 nM |  | COc1ccc(-c2cc(-c3ccccc3)[nH]c2C(=O)NCc2ccc(C(=O)NO)cc2)cc1OC [Example 41, N-{4-[(hydroxyamino)carbonyl]benzyl}-3-(3,4-dimethoxyphenyl)-5-phenyl-1H-pyrrole-2-carboxamide]
 |  |  |  |  |  | 62 nM |  | O=C(NO)c1ccc(CNC(=O)c2[nH]c(-c3ccccc3)cc2-c2ccc([N+](=O)[O-])cc2)cc1 [Example 43, N-{4-[(hydroxyamino)carbonyl]benzyl}-3-(4-nitrophenyl)-5-phenyl-1H-pyrrole-2-carboxamide]
 |  |  |  |  |  | 70 nM |  | COc1ccc(-c2cc(-c3ccccc3)[nH]c2C(=O)NCc2ccc(C(=O)NO)cc2)cc1 [Example 38, N-{4-[(hydroxyamino)carbonyl]benzyl}-3-(4-methoxyphenyl)-5-phenyl-1H-pyrrole-2-carboxamide]
 |  |  |  |  |  | 129 nM |  | O=C(NO)c1ccc(CNC(=O)c2[nH]c(-c3ccccc3)cc2-c2ccc(F)c(F)c2)cc1 [Example 42, 3-(3,4-difluorophenyl)-N-{4-[(hydroxyamino)carbonyl]benzyl}-5-phenyl-1H-pyrrole-2-carboxamide]
